How the values were obtained:
[1] = molecular target: Replicase polyprotein 1ab (Severe acute respiratory syndrome coronavirus 2, UniProt P0DTD1); test: (§1) Inhibition of SARS-CoV-2 Main protease
[2] = molecular target: Replicase polyprotein 1ab (Severe acute respiratory syndrome coronavirus 2) (UniProt P0DTD1); test: Inhibition of SARS-CoV-2 Main protease at 2 uM relative to control
[3] = Selectivity ratio of CC50 for cytotoxicity against African green monkey Vero E6 cells to EC50 for antiviral activity against SARS-CoV-2 infected in African green monkey Vero E6 cells; format: toxicity, cell-based, Vero C1008; settings: read-out: Ratio CC50/EC50
[4] = Inhibition of Porcine epidemic diarrhea virus Main protease
SARS-CoV-2 = test: Antiviral activity against SARS-CoV-2 infected in African green monkey Vero E6 cells assessed as inhibition of viral replication; format: functional, organism-based; settings: Severe acute respiratory syndrome coronavirus 2, Vero C1008
[5] = Cytotoxicity against African green monkey Vero E6 cells assessed as reduction of cell viability; format: toxicity, cell-based, Vero C1008; settings: chlorocebus sabaeus
[6] = tested on: Porcine epidemic diarrhea virus; test: Antiviral activity against Porcine epidemic diarrhea virus infected in African green monkey Vero E6 cells assessed as inhibition of viral replication; format: functional, organism-based; settings: Vero C1008
[7] = molecular target: Replicase polyprotein 1ab (Severe acute respiratory syndrome coronavirus 2) (UniProt P0DTD1); test: as §1

CC(=O)O[C@H](CC=C(C)C)C1=CC(=O)c2c(O)ccc(O)c2C1=O [ACETYLSHIKONIN]
IC50 [1]: 350 nM | inhibition [2]: > 50%

COc1ccc(-c2nc(N)n(C)c2SSc2c(-c3ccc(OC)cc3)nc(N)n2C)cc1
selectivity ratio [3]: > 10 | IC50 [4]: 120 nM | EC50 (SARS-CoV-2): 4090 nM | CC50 [5]: 50200 nM | EC50 [6]: 5680 nM | IC50 [1]: 30 nM | inhibition [7]: Dose-Dependent Effect | inhibition [2]: > 50%

CC(C)=CC[C@@H](OC(=O)CC(C)(C)O)C1=CC(=O)c2c(O)ccc(O)c2C1=O [BETA-HYDROXYISOVALERYLSHIKONIN]
IC50 [1]: 1020 nM | inhibition [2]: > 50%
